Results on three compounds are retold here after patent publication US11230535B2, “CFTR regulators and methods of use thereof” (THE REGENTS OF THE UNIVERSITY OF CALIFORNIA, priority 2015, dated 2022).

The test system of data set [1] is mouse colon. Nature of the data set: Short-circuit current in freshly harvested mouse colon. The settings on record: freshly isolated mouse colon; read-out: EC50, increase in short-circuit current (Cl− secretion). The method, then:
Short-circuit current was measured in FRT cells stably expressing wild-type human CFTR cultured on porous filters as described. The basolateral solution contained 130 mM NaCl, 2.7 mM KCl, 1.5 mM KH2PO4, 1 mM CaCl2, 0.5 mM MgCl2, 10 mM glucose, and 10 mM Na-HEPES (pH 7.3, 37° C.). In the apical solution 65 mM NaCl was replaced by Na gluconate, and CaCl2 was increased to 2 mM, and the basolateral membrane was permeabilized with 250 μg/ml amphotericin B. Short-circuit current was measured in freshly harvested adult mouse colon at 37° C. using symmetrical Krebs-bicarbonate buffer.
Short-circuit current measurement. Short-circuit current was measured in FRT cells stably expressing wild-type human CFTR cultured on porous filters as described. The basolateral solution contained 130 mM NaCl, 2.7 mM KCl, 1.5 mM KH2PO4, 1 mM CaCl2, 0.5 mM MgCl2, 10 mM glucose, and 10 mM Na-HEPES (pH 7.3, 37° C.). In the apical solution 65 mM NaCl was replaced by Na gluconate, and CaCl2 was increased to 2 mM, and the basolateral membrane was permeabilized with 250 μg/ml amphotericin B. Short-circuit current was measured in freshly harvested adult mouse colon at 37° C. using symmetrical Krebs-bicarbonate buffer.

For data set [2], the system named is cAMP. Nature of the data set: cAMP GloSensor luminescence assay in FRT cells. It is filed as cell-based, rat. The method, then:
Intracellular cAMP activity was measured using a GloSensor luminescence assay (Promega Corp., Madison, Wis., USA). FRT null cells were stably transfected with the pGloSensor cAMP plasmid and plated onto white 96-well microplates and grown to confluence. Cells were washed three times with PBS and incubated with 5 μM CFTRact-J027 for 10 min in the absence and presence of 100 nM forskolin. cAMP was assayed according to the manufacturer's instructions.
Intracellular cAMP activity was measured using a GloSensor luminescence assay (Promega Corp., Madison, Wis., USA). FRT cells stably transfected with the pGloSensor cAMP plasmid (Promega Corp.) were cultured in white 96-well microplates (Corning Costar) overnight. Cells were then washed three times with PBS and incubated with 5 μM test compound for 10 min in the absence and presence of 100 nM forskolin.
cAMP assay. Intracellular cAMP activity was measured using a GloSensor luminescence assay (Promega Corp., Madison, Wis., USA). FRT null cells were stably transfected with the pGloSensor cAMP plasmid and plated onto white 96-well microplates and grown to confluence. […]
cAMP and cytotoxicity assays. Intracellular cAMP activity was measured using a GloSensor luminescence assay (Promega Corp., Madison, Wis., USA). […]

Data set [3] relates to mice. Nature of the data set: In vivo whole-gut transit time. Further details: species or system mouse. The method, then: Whole-gut transit time was determined using an orally administered marker (200 μL, 5% Evans Blue, 5% gum Arabic) and measuring the time of its appearance in stool. Mice were administered loperamide and CFTRact-J027 (10 mg/kg) or vehicle intraperitoneally at zero time. For ex vivo contractility measurements, mice were euthanized by avertin overdose (200 mg/kg, 2,2,2-tribromethanol, Sigma-Aldrich) and ileum and colon segments of ˜2 cm length were isolated and washed with Krebs-Henseleit buffer. The ends of the intestinal segments were tied, connected to a force transducer (Biopac Systems, Goleta, Calif., USA) and tissues were transferred to an organ chamber (Biopac Systems) containing Krebs-Henseleit buffer at 37° C. aerated with 95% O2, 5% CO2. Ileum and colon were stabilized for 60 min with resting tensions of 0.5 and 0.2 g respectively, and solutions were changed every 15 min. Effects of CFTRact-J027 on baseline and loperamide-suppressed isometric intestinal contractions were recorded.
In vivo intestinal transit and ex vivo intestinal contractility. Whole-gut transit time was determined using an orally administered marker (200 μL, 5% Evans Blue, 5% gum Arabic) and measuring the time of its appearance in stool. […] Effects of CFTRact-J027 on baseline and loperamide-suppressed isometric intestinal contractions were recorded.

Data set [4] in a line: 7-day oral toxicity study in mice (blood count, serum chemistry, body weight, lung wet/dry weight). Type of data set: in vivo, mouse. An excerpt: Chronic administration and toxicity studies.
A short description of data set [5]: Tear film pharmacokinetics (LC/MS of tear washes).
The nature of data set [6]: Chemical stability in ophthalmic vehicle (LC/MS). It is filed as physicochemical. Particulars: 100 μM, 0.3% CMC in Ringer's solution, 24 h at 40° C.
The mark [7] stands for this setting: 10 mg/kg oral once per day, 7 days.

“Also recorded” adds a separate entry of the source.

For the compound `Nc1ccc([N+](=O)[O-])cc1-c1nc2ccccc2n(Cc2ccccc2)c1=O` [CFTRact-J027, 3-(2-amino-5-nitrophenyl)-1-benzylquinoxalin-2(1H)-one], the EC50 (in general, the midpoint of the concentration-response curve) in data set [1] was approximately 300 nM. The “cellular cAMP, added together with forskolin” value in data set [2] (5 μM + 100 nM forskolin) is “does not further increase cAMP”. In data set [2] (5 μM, 10 min), the “cellular cAMP, compound alone” value is on record as “without causing elevation of cytoplasmic cAMP; also recorded: does not elevate cellular cAMP”. Moreover, the whole-gut transit time entry in data set [3] (10 mg/kg ip, loperamide-treated wild-type mice) is reported as “normalized”. In addition, the “whole-gut transit time in cystic fibrosis mice” value in data set [3] (CF mice) is given as “no effect”. In addition, the “toxicity after chronic administration” value in data set [4] (10 mg/kg oral) is reported as “without apparent toxicity”. Moreover, in data set [4] (setting [7]), the ALP amounted to 53 ± 2.5 U/L, the ALT is given as 44 ± 6 U/L, the AST was 105 ± 11 U/L and the Albumin came out at 2.9 ± 0.03 g/dL. In addition, in data set [4] (setting [7]), the BUN is 18.4 ± 1.2 mg/dL, the Bicarbonate is on record as 16 ± 1.7 mmol/L, the CK came out at 312 ± 62 U/L and the Calcium was 8.5 ± 0.04 mg/dL. Moreover, in data set [4] (setting [7]), the Chloride came out at 115 ± 1 mmol/L, the Cholesterol was 121 ± 6 mg/dL, the Creatinine stood at 0.2 ± 0 mg/dL and the Globulin stood at 2.2 ± 0.1 g/dL. In data set [4] (setting [7]), the Glucose was 164 ± 6 mg/dL, the Hemoglobin is given as 12.8 ± 0.3 g/dL, the Leukocytes is listed as 1.9 ± 0.5 10^3/μL and the Phosphorus came out at 6.8 ± 0.3 mg/dL. Further, in data set [4] (setting [7]), the Potassium turned out to be 4.4 ± 0.1 mmol/L, the Sodium is recorded as 151 ± 0.7 mmol/L, the Thrombocytes is recorded as 900 ± 48 10^3/μL and the Total bilirubin turned out to be 0.1 ± 0 mg/dL. This compound showed a Total protein in data set [4] (setting [7]) of 5.2 ± 0.1 g/dL. Also, in data set [4] (7-day treated mice), the “body weight and airway/lung fluid accumulation” value is “nor did it change body weight or produce airway/lung fluid accumulation”; the lung water content entry was “normal lung water content”; the “serum chemistry and blood parameters, in words” value was “did not affect the major serum chemistry and blood parameters”.

Take `CCN(CC)c1nc(Nc2ccccc2)nc(OC(C(F)(F)F)C(F)(F)F)n1` [CFTRact-K089, N,N-Diethyl-6-[(1,1,1,3,3,3-hexafluoropropan-2-yl)oxy]-N′-phenyl-1,3,5-triazine-2,4-diamine]: the “amount recovered from tear fluid at six hours” value in data set [5] (0.1 nmol (2 μL, 50 μM) instilled) was 0.011 ± 0.004 pmol. In addition, the “duration of predicted therapeutic levels in tear fluid” value in data set [5] (0.1 nmol instilled) is “at least six”. The “tear film bioavailability, in words” value in data set [5] (topical) is listed as “sustained tear film bioavailability”.

Consider `CNc1nc(Nc2ccccc2)nc(OCC(F)(F)C(F)F)n1` [compound 12, N-methyl-N′-phenyl-6-(2,2,3,3-tetrafluoropropoxy)-1,3,5-triazine-2,4-diamine], for which the “chemical stability in ophthalmic vehicle” value in data set [6] is listed as “stable at 100 μM in an ophthalmic vehicle; also recorded: remained chemically stable”.
